These results are taken from paper PMC10384440 (Viruses, 2023).

One may read the CC50 as the concentration giving 50% cytotoxicity. In general, pIC50 refers to the IC50 on a negative log10 scale, so that one unit is a factor of ten. High values mean a low IC50, low ones a high IC50. Broadly, the viability is a read-out of living cells in per cent, often relative to untreated cells.

Holding throughout (format): cell-based
One data set has as its system DENV-2 New Guinea. Briefly: Antiviral screening: NS1 protein production in DENV-2 infected Huh-7 cells. Particulars: for effect on NS1 production vs viral control: DENV-2 infected Huh-7, 24 h, non-cytotoxic concentrations (between 40 and 100 µM); for NS1 production: DENV-2 infected Huh-7, MOI 1, 24 h, compounds at non-cytotoxic concentrations (between 40 and 100 µM), mycophenolic acid 20 µM, relative to viral control.

Data set [1] is described as follows: Cytotoxic effect on Huh-7 cells, cell viability assay with resazurin. Particulars: human. A general note: Resazurin is reduced to fluorescent resorufin, in cell work by metabolically active cells.
A further data set has as its system Huh-7 cells. The description is as above. Particulars: for effect on cell viability at 100 µM: highest concentration evaluated.
Another data set has as its system DENV-2. Briefly: Viral RNA production of DENV-2 in infected Huh-7 cells (RT-qPCR). Particulars: 50 µM; DENV-2 infected Huh-7; normalized using GAPDH; vs viral control. A general note: In qPCR the cycle at which signal appears reflects the starting amount.
In data set [2] the test system is DENV-2 subgenomic replicon in Huh-7 cells. Nature of the data set: NS5 protein production in Huh-7 DENV-2 replicon cells (ELISA).
Setting [3] is: Huh-7 cells, Huh-7 cell line, resazurin, read-out: CC50.
[4] abbreviates: Huh-7, all evaluated concentrations.

pIC50: −log10 of the molar value. Where two headings read alike, the source gives them in different places.

For `Cc1ccc(CNC(=O)C2Cc3c([nH]c4ccccc34)C3c4ccccc4C(=O)N23)cc1` (stereo not drawn) [MR94], the “effect on NS1 production vs viral control” value (from here on “effect … vs viral control”) with DENV-2 New Guinea was “except for treatment with MR94”. Besides, the CC50 in data set [1] (setting [3]) stood at 46.2 µM.

As to `O=C(NCCc1c[nH]c2ccccc12)C1Cc2c([nH]c3ccccc23)C2c3ccccc3C(=O)N12` (stereo not drawn) [MR25], in the data set on DENV-2 New Guinea, the “effect … vs viral control” value is given as “reduction in NS1 production” and the NS1 production is around 45%. Besides, in data set [1] (setting [3]), the CC50 was found to be 70.6 µM.

With `O=C(NCCc1ccccc1)C1Cc2c([nH]c3ccccc23)C2c3ccccc3C(=O)N12` (stereo not drawn) [R55], in the data set with DENV-2 New Guinea, the “effect … vs viral control” value is “reduction in NS1 production”. In the data set on Huh-7 cells (setting [4]), the “effect on cell viability at the evaluated concentrations” value is recorded as “did not reduce cell viability”. The CC50 in data set [1] (setting [3]) was above 100 µM.

For `COc1c(C)c2c(c(O)c1C/C=C(\C)CCC(=O)O)C(=O)OC2` [mycophenolic acid, Mycophenolic acid, reference compound], the NS1 production entry in the data set with DENV-2 New Guinea is “around 63%”.

Turning to `O=C(NCCc1ccccc1F)C1Cc2c([nH]c3ccccc23)C2c3ccccc3C(=O)N12` (stereo not drawn) [MR41], the “effect … vs viral control” value in the data set on DENV-2 New Guinea was “reduction in NS1 production”. Also, in the data set on Huh-7 cells (setting [4]), the “effect on cell viability at the evaluated concentrations” value is given as “no effect was evidenced”. Moreover, in data set [1] (setting [3]), the CC50 was above 100 µM.

For the compound `O=C(NCc1ccccc1)C1Cc2c([nH]c3ccccc23)C2c3ccccc3C(=O)N12` (stereo not drawn) [R32], the “effect … vs viral control” value with DENV-2 New Guinea was “reduction in NS1 production”. The “effect on cell viability at the evaluated concentrations” value in the data set on Huh-7 cells (setting [4]) is recorded as “did not reduce cell viability”. Further, in data set [1] (setting [3]), the CC50 was above 100 µM.

In the case of `CC1(C)CC(NC(=O)C2Cc3c([nH]c4ccccc34)C3c4ccccc4C(=O)N23)CC(C)(C)N1` (stereo not drawn) [M78], the “reduction of DENV-2 viral RNA (relative expression, 2^−ΔΔCT)” value in the data set on DENV-2 was found to be 1.7 times. Also, in the data set with DENV-2 New Guinea, the “effect … vs viral control” value is on record as “reduction in NS1 production” and the NS1 production is on record as around 38%. Moreover, the “selectivity index (SI), CC50/IC50” value in data set [2] (CC50 Huh-7 / IC50 NS5 production) was found to be 2.5. Moreover, the negative-log IC50 (pIC50) in data set [2] (Dengue virus, DENV2, Huh-7 DENV-2 replicon, dose-response curve, 24 h) is 4.61. The “reduction of NS5 protein expression” value in data set [2] (Huh-7 DENV-2 replicon, 50 µM) is reported as 70%. Also, in data set [2] (Huh-7 DENV-2 replicon, 50 µM, 24 h, compared to VC (100%)), the NS5 production is on record as around 30%. Also, the “effect on cell viability at 100 µM” value in the data set with Huh-7 cells (Huh-7) was “loss of viability”. Further, the CC50 in data set [1] (setting [3]) was determined as 60.8 µM. The viability in data set [1] (Huh-7 cells, Huh-7, at 12.5, 25, and 50 µM, read-out: cellular viability) was around 100%.

With `O=C(NCCc1ccc(Cl)cc1)C1Cc2c([nH]c3ccccc23)C2c3ccccc3C(=O)N12` (stereo not drawn) [R53], the “effect on cell viability at the evaluated concentrations” value with Huh-7 cells (setting [4]) is “reduced cell viability”. Moreover, in data set [1] (setting [3]), the CC50 worked out at 30 µM.

For the compound `Cc1cc(C)cc(NC(=O)C(NC(=O)N2CC3CC(C2)c2cccc(=O)n2C3)C(C)C)c1` (stereo not drawn) [R07], the “effect … vs viral control” value with DENV-2 New Guinea was “reduction in NS1 production”. Also, the “effect on cell viability at the evaluated concentrations” value in the data set on Huh-7 cells is listed as “did not reduce cell viability”. This compound also yielded a CC50 in data set [1] (CC50) above 100 µM.

Turning to `O=C(Nc1ccc2c(c1)OCCO2)[C@@H]1CCCN1C(=O)[C@@H]1Cc2ccccc2CN1` [M76], in the data set with DENV-2 New Guinea, the “effect … vs viral control” value is “reduction in NS1 production”. Moreover, in the data set on Huh-7 cells (Huh-7), the “effect on cell viability at 100 µM” value is listed as “no effect was observed”. Also, in data set [1] (setting [3]), the CC50 is above 100 µM.
